Measured values published in PubChem BioAssay (NCI).
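In this assay, cells in 96-well plates receive the compound at five concentrations for 48 hours. Endpoints are linearly interpolated between the surrounding concentrations. TGI: total growth inhibition.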

Legend:
Assay in all cases: growth of human tumour cells (NCI), 48 h
[1] = test system: SF-539 CNS
[2] = test system: SR leukemia
[3] = test system: RPMI-8226 leukemia
[4] = test system: HT29 colon
[5] = test system: SK-MEL-28 melanoma
[6] = test system: HOP-18 NSCLC
[7] = test system: MALME-3M melanoma
[8] = test system: LOX IMVI melanoma
[9] = test system: HCT-15 colon
[10] = test system: RXF-631 renal
[11] = test system: M14 melanoma
[12] = test system: SF-268 CNS
[13] = test system: NCI-H226 lung
[14] = test system: SNB-19 CNS
[15] = test system: OVCAR-5 ovarian
[16] = test system: DLD-1 colon
[17] = test system: HOP-62 NSCLC
[18] = test system: U251 CNS
[19] = test system: ACHN renal
[20] = test system: MOLT-4 leukemia
[21] = test system: CCRF-CEM leukemia
[22] = test system: LXFL 529 NSCLC
[23] = test system: SW-620 colon
[24] = test system: COLO 205 colon
[25] = test system: HCC-2998 colon
[26] = test system: UACC-62 melanoma
[27] = test system: 786-0 renal
[28] = test system: SK-MEL-2 melanoma
[29] = test system: K-562 leukemia
[30] = test system: DMS 273 small cell lung
[31] = test system: EKVX NSCLC
[32] = test system: SK-OV-3 ovarian
[33] = test system: KM12 colon
[34] = test system: OVCAR-8 ovarian
[35] = test system: SNB-75 CNS
[36] = test system: CAKI-1 renal
[37] = test system: KM20L2 colon
[38] = test system: NCI-H23 lung
[39] = test system: NCI-H460 lung
[40] = test system: OVCAR-3 ovarian
[41] = test system: NCI-H522 lung
[42] = test system: UACC-257 melanoma
[43] = test system: SF-295 CNS
[44] = test system: IGROV1 ovarian
[45] = test system: OVCAR-4 ovarian
[46] = test system: XF 498 CNS
[47] = test system: M19-MEL melanoma
[48] = test system: UO-31 renal
[49] = test system: SK-MEL-5 melanoma
[50] = test system: SN12C renal
[51] = test system: A549 NSCLC
[52] = test system: A498 renal
[53] = test system: DMS 114 small cell lung
[54] = test system: HL-60(TB) leukemia
[55] = test system: RXF 393 renal
[56] = test system: TK-10 renal
[57] = test system: HCT-116 colon
[58] = test system: SNB-78 CNS

Measured: TGI

CO/S(=N/S(=O)(=O)c1ccccc1)c1ccccc1[N+](=O)[O-] (stereo not given)
not listed: [52] | [53] | [54] | [55] | [56] | [57] | [58]
> 100 µM: all other assays above

COC1CC(O[C@H]2CC[C@@]3(C)C(=CCC4(O)C3CCC35C(=O)OC6(C)O[C@@]43CCC65)C2)OC(C)C1O (stereo not given in full)
not listed: [8] | [10] | [23] | [40]
> 100 µM: all other assays above
